From ChEMBL document CHEMBL5634152, “The discovery of water-soluble indazole derivatives as potent microtubule polymerization inhibitors” (Eur J Med Chem, 2023)
Values after ≈ are worked out from the molar mass of the structure shown. Active and inactive are the calls of the source. The rule behind the calls is not given here.

Tests used:
T-24 = experiment: cells; conditions: Homo sapiens
Description: Antiproliferative activity against human T-24 cells assessed as cell growth inhibition incubated for72 hrs by MTT assay

A549 [1] = experiment: cells; conditions: Homo sapiens
Description: Antiproliferative activity against human A549 cells assessed as cell growth inhibition incubated for72 hrs by MTT assay

Huh-7 = experiment: cells; conditions: Homo sapiens
Description: Antiproliferative activity against human Huh-7 cells assessed as cell growth inhibition incubated for72 hrs by MTT assay

A549 [2] = experiment: Induction of cell cycle arrest at S phase in human A549 cells at 12.5 nM incubated for 24 hrs by flow cytometry (reference value: 24.86 %); type: functional
A549 [3] = experiment: Induction of apoptosis in human A549 cells assessed as viable cells at 25 nM incubated for 24 hrs by Annexin V/7-Aad staining based flow cytometry (reference value: 93.63 %); type: functional; conditions: read-out: Activity
A549 [4] = experiment: Induction of cell cycle arrest at G1 phase in human A549 cells at 12.5 nM incubated for 24 hrs by flow cytometry (reference value: 71.30 %); type: functional
Sus scrofa = organism: Sus scrofa; experiment: Inhibition of pig brain tubulin polymerization by absorbance based assay; type: tissue-based; conditions: dose <= 6.0 µM
[5] = Toxicity in Balb/c nude mouse xenografted with human A549 cells assessed as damage in spleen at 25 mg/kg, IG qd for 21 days by H and E staining based analysis; type: organism-based; conditions: in vivo, po, 504 h, time 21 day
A549 [6] = experiment: Inhibition of cell migration in human A549 cells at 25 nM incubated for 24 hrs by wound healing assay relative to control; type: functional
A549 [7] = experiment: Induction of apoptosis in human A549 cells assessed as necrotic cells at 50 nM incubated for 24 hrs by Annexin V/7-Aad staining based flow cytometry (reference value: 2.13 %); type: functional
A549 [8] = experiment: Induction of apoptosis in human A549 cells assessed as necrotic cells at 12.5 nM incubated for 24 hrs by Annexin V/7-Aad staining based flow cytometry (reference value: 2.13 %); type: functional
A549 [9] = experiment: Induction of apoptosis in human A549 cells assessed as late apoptotic cells at 25 nM incubated for 24 hrs by Annexin V/7-Aad staining based flow cytometry (reference value: 3.20 %); type: functional
A549 [10] = experiment: Antitumor activity against human A549 cells xenografted in Balb/c nude mouse assessed as tumor growth inhibition at 25 mg/kg, IG qd for 21 days relative to control; type: functional; conditions: A549, po, 504 h, time 21 day, read-out: TGI
A549 [11] = experiment: Induction of cell cycle arrest at G1 phase in human A549 cells at 25 nM incubated for 24 hrs by flow cytometry (reference value: 71.30 %); type: functional
A549 [12] = experiment: Inhibition of cell migration in human A549 cells at 50 nM incubated for 24 hrs by wound healing assay relative to control; type: functional
[13] = Toxicity in Balb/c nude mouse xenografted with human A549 cells assessed as damage in liver at 25 mg/kg, IG qd for 21 days by H and E staining based analysis; type: organism-based; conditions: in vivo, po, 504 h, time 21 day
[14] = Aqueous solubility of compound in pH 7.4 at 10 mg/ml by HPLC analysis; type: physicochemical; conditions: buffer
A549 [15] = experiment: Induction of apoptosis in human A549 cells assessed as necrotic cells at 25 nM incubated for 24 hrs by Annexin V/7-Aad staining based flow cytometry (reference value: 2.13 %); type: functional
Tubulin (Homo sapiens) [16] = target: T1, Tubulin (Homo sapiens) (UniProt P68371+Q9H4B7+P0DPH7+P68366+Q13509+Q71U36+P04350+Q3ZCM7+P07437+P68363+Q9BQE3+Q6PEY2+Q13885+Q9BVA1+Q9BUF5); experiment: Inhibition of tubulin polymerization in human A549 cells assessed as decrease in spindle formation incubated for 24 hrs by immunofluorescence based analysis; type: cell-based; conditions: dose 12.5-25 nM
A549 [17] = experiment: Inhibition of cell migration in human A549 cells at 12.5 nM incubated for 24 hrs by wound healing assay relative to control; type: functional
[18] = Lipophilicity, logP of compound in n-octanol-water at 5 mg/ml incubated for 8 hrs by HPLC analysis; type: physicochemical
A549 [19] = experiment: Induction of apoptosis in human A549 cells assessed as late apoptotic cells at 12.5 nM incubated for 24 hrs by Annexin V/7-Aad staining based flow cytometry (reference value: 3.20 %); type: functional
[20] = Toxicity in Balb/c nude mouse xenografted with human A549 cells assessed as body weight loss at 25 mg/kg, IG qd for 21 days; type: organism-based; conditions: in vivo, po, 504 h, time 21 day
[21] = Toxicity in Balb/c nude mouse xenografted with human A549 cells assessed as damage in kidney at 25 mg/kg, IG qd for 21 days by H and E staining based analysis; type: organism-based; conditions: in vivo, po, 504 h, time 21 day
A549/TR = experiment: Antiproliferative activity against human A549/Taxol cells assessed as cell growth inhibition incubated for72 hrs by MTT assay; type: functional, cell-based
A549 [22] = experiment: Induction of apoptosis in human A549 cells assessed as viable cells at 50 nM incubated for 24 hrs by Annexin V/7-Aad staining based flow cytometry (reference value: 93.63 %); type: functional; conditions: read-out: Activity
Tubulin (Homo sapiens) [23] = target: T1, Tubulin (Homo sapiens); experiment: Binding affinity to tubulin polymerization in human A549 cells assessed as N,N'-ethylene- bis(iodoacetamide)/beta-tubulin adduct formation at 5 uM incubated for 2 hrs by chemiluminescence based assay; type: cell-based
A549 [24] = experiment: Induction of apoptosis in human A549 cells assessed as early apoptotic cells at 25 nM incubated for 24 hrs by Annexin V/7-Aad staining based flow cytometry (reference value: 1.05 %); type: functional
[25] = Resistance index, ratio of IC50 for human A549/Taxol cells to IC50 for human A549 cells; type: functional
A549 [26] = experiment: Induction of apoptosis in human A549 cells assessed as early apoptotic cells at 12.5 nM incubated for 24 hrs by Annexin V/7-Aad staining based flow cytometry (reference value: 1.05 %); type: functional
A549 [27] = experiment: Induction of cell cycle arrest at G2/M phase in human A549 cells at 12.5 nM incubated for 24 hrs by flow cytometry (reference value: 3.84 %); type: functional
Tubulin (Homo sapiens) [28] = target: T1, Tubulin (Homo sapiens); experiment: Binding affinity to tubulin polymerization at colchicine-binding site in human A549 cells assessed as N,N'-ethylene- bis(iodoacetamide)/beta-tubulin adduct formation incubated for 2 hrs by chemiluminescence based assay; type: cell-based; conditions: dose 0.1-25 µM
A549 [29] = experiment: Induction of apoptosis in human A549 cells assessed as early apoptotic cells at 50 nM incubated for 24 hrs by Annexin V/7-Aad staining based flow cytometry (reference value: 1.05 %); type: functional
A549 [30] = experiment: Induction of apoptosis in human A549 cells assessed as viable cells at 12.5 nM incubated for 24 hrs by Annexin V/7-Aad staining based flow cytometry (reference value: 93.63 %); type: functional; conditions: read-out: Activity
Tubulin (Homo sapiens) [31] = target: T1, Tubulin (Homo sapiens); experiment: Inhibition of tubulin polymerization in human A549 cells assessed as disruption of microtubule aggregation incubated for 24 hrs by immunofluorescence based analysis; type: cell-based; conditions: dose 12.5-25 nM
A549 [32] = experiment: Induction of cell cycle arrest at S phase in human A549 cells at 25 nM incubated for 24 hrs by flow cytometry (reference value: 24.86 %); type: functional
[33] = Inhibition of pig brain tubulin polymerization measured after 20 mins by absorbance based assay; type: tissue-based, Sus scrofa
A549 [34] = experiment: Induction of cell cycle arrest at G2/M phase in human A549 cells at 25 nM incubated for 24 hrs by flow cytometry (reference value: 3.84 %); type: functional
A549 [35] = experiment: Induction of apoptosis in human A549 cells assessed as late apoptotic cells at 50 nM incubated for 24 hrs by Annexin V/7-Aad staining based flow cytometry (reference value: 3.20 %); type: functional

For `COc1cc(-n2ncc3ccc(-c4ccc5c(ccn5C)c4)cc32)cc(OC)c1OC`, the IC50 (T-24) was 120 nM, the IC50 (A549 [1]) was 63 nM and the IC50 (Huh-7) was 73 nM.
`COc1ccc(-c2ccc3c(C)nn(-c4cc(OC)c(OC)c(OC)c4)c3c2)cc1` showed an IC50 (T-24) of 280 nM, an IC50 (A549 [1]) of 490 nM and an IC50 (Huh-7) of 110 nM.
Molecule `COc1cc(-n2ncc3ccc(-c4ccc(F)cc4)cc32)cc(OC)c1OC` has an IC50 (T-24) of 270 nM, an IC50 (A549 [1]) of 90 nM and an IC50 (Huh-7) of 110 nM.
Work on `COc1cc(-n2ncc3ccc(-c4ccc(Cl)cc4)cc32)cc(OC)c1OC` yielded an IC50 (T-24) of 320 nM, an IC50 (A549 [1]) of 200 nM and an IC50 (Huh-7) of 150 nM.
For `COc1ccc(-n2ncc3ccc(-c4cc(OC)c(OC)c(OC)c4)cc32)cn1`, the IC50 (T-24) was over 25000 nM, the IC50 (A549 [1]) was over 25000 nM and the IC50 (Huh-7) was over 25000 nM.
For `COc1cc(-n2ncc3ccc(-c4ccc5c(c4)CCO5)cc32)cc(OC)c1OC`, the IC50 (T-24) was 110 nM, the IC50 (A549 [1]) was 98 nM and the IC50 (Huh-7) was 79 nM.
With `COc1cc(-n2ncc3ccc(-c4ccc(C)nc4)cc32)cc(OC)c1OC.Cl` the Activity (A549 [2]) was 18.11%, the viability at 0.025 µM (A549 [3]) was 69.1% and the Activity (A549 [4]) was 68.78%. For the same molecule, the inhibition (Sus scrofa) was “Dose-Dependent Effect”, the Activity [5] was “Non-Toxic” and the inhibition at 0.025 µM (A549 [6]) was 52.2%. It also gave an Activity (A549 [7]) of 1.19%, an Activity (A549 [8]) of 1.44% and an Activity (A549 [9]) of 12.23%. The inhibition in vivo at 25 mg/kg (A549 [10]) was 64.1%, the Activity (A549 [11]) was 3.04% and the inhibition at 0.05 µM (A549 [12]) was 83.9%. The Activity [13] was “Non-Toxic”, the solubility [14] was 149 µg/mL and the Activity (A549 [15]) was 2.26%. The inhibition (Tubulin (Homo sapiens) [16]) was “Dose-Dependent Effect”, the IC50 (T-24) was 46 nM and the inhibition at 0.0125 µM (A549 [17]) was 32.3%. For the same molecule, the logP at 8 h [18] was 1.8, the IC50 (A549 [1]) was 27 nM and the Activity (A549 [19]) was 3.28%. The Activity [20] was “Non-Toxic”, the IC50 (Huh-7) was 30 nM and the Activity [21] was “Non-Toxic”. The IC50 (A549/TR) was 33 nM, the viability at 0.05 µM (A549 [22]) was 56.6% and the Activity (Tubulin (Homo sapiens) [23]) was “Active”. For the same molecule, the Activity (A549 [24]) was 16.41%, the “Ratio IC50” value [25] was 1.2 and the Activity (A549 [26]) was 3.02%. The Activity (A549 [27]) was 13.1%, the Activity (Tubulin (Homo sapiens) [28]) was “Dose-Dependent Effect” and the Activity (A549 [29]) was 26.53%. For the same molecule, the viability at 0.0125 µM (A549 [30]) was 92.3%, the inhibition (Tubulin (Homo sapiens) [31]) was “Dose-Dependent Effect” and the Activity (A549 [32]) was 7.88%. The IC50 [33] was 1750 nM, the Activity (A549 [34]) was 89.07% and the Activity (A549 [35]) was 15.65%.
For `COc1cc2c(c(OC)c1OC)-c1ccc(OC)c(=O)cc1[C@@H](NC(C)=O)CC2` [COLCHICINE], the IC50 (T-24) was 46 nM and the IC50 (Huh-7) was 24 nM.
For `COc1ccc(-c2ccc3c(C)nn(-c4cc(OC)c(OC)c(OC)c4)c3c2)cn1`, the IC50 (T-24) was 2230 nM, the IC50 (A549 [1]) was 1510 nM and the IC50 (Huh-7) was 1060 nM.
Molecule `COc1cc(-n2ncc3ccc(-c4cccc5[nH]ccc45)cc32)cc(OC)c1OC` has a solubility ([14]; read-out: solubility) of 5.09 µg/mL (≈ 12.7 µM), an IC50 (T-24) of 30 nM and a logP at 8 h [18] of 3.1. The IC50 (A549 [1]) was 25 nM, the IC50 (Huh-7) was 28 nM and the IC50 (A549/TR) was 25 nM. For the same molecule, the “Ratio IC50” value [25] was 1.
For `COc1cc(-n2ncc3ccc(-c4ccc5[nH]ccc5c4)cc32)cc(OC)c1OC`, the IC50 (T-24) was 170 nM, the IC50 (A549 [1]) was 120 nM and the IC50 (Huh-7) was 140 nM.
In the case of `COc1ccc(-c2ccc3cnn(-c4cc(OC)c(OC)c(OC)c4)c3c2)cn1`, the IC50 (T-24) is reported as 190 nM, the IC50 (A549 [1]) is reported as 150 nM and the IC50 (Huh-7) is reported as 330 nM.
In the case of `COc1cc(-n2ncc3ccc(-c4ccc(C)cc4)cc32)cc(OC)c1OC`, the IC50 (T-24) is reported as 92 nM, the IC50 (A549 [1]) is reported as 45 nM and the IC50 (Huh-7) is reported as 51 nM.
Work on `COc1ccc(-n2nc(C)c3ccc(-c4cc(OC)c(OC)c(OC)c4)cc32)cc1` yielded an IC50 (T-24) of over 25000 nM, an IC50 (A549 [1]) of over 25000 nM and an IC50 (Huh-7) of over 25000 nM.
